According to PubChem BioAssay (NCI):
Values joined by “and” are separate entries in the source; they are usually repeats but may differ in a detail not shown here. Equal values may be shown once.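 Interpolation was linear, between the two tested concentrations surrounding the appropriate level; five concentrations were tested over 48 hours in 96-well plates. At the GI50, growth is halved. TGI: total growth inhibition.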

Legend:
Assay in all cases: NCI tumour cell line growth inhibition, 48 h
[1] = test system: EKVX NSCLC
[2] = test system: IGROV1 ovarian
[3] = test system: OVCAR-3 ovarian
[4] = test system: OVCAR-8 ovarian
[5] = test system: RXF 393 renal
[6] = test system: SK-MEL-2 melanoma
[7] = test system: SK-MEL-28 melanoma
[8] = test system: SR leukemia
[9] = test system: SW-620 colon
[10] = test system: U251 CNS

Compound | TGI [1] | TGI [2] | TGI [3] | TGI [4] | TGI [5] | TGI [6] | TGI [7] | TGI [8] | TGI [9] | TGI [10] | GI50 [1] | GI50 [2] | GI50 [3] | GI50 [4] | GI50 [5] | GI50 [6] | GI50 [7] | GI50 [8] | GI50 [9] | GI50 [10]
O=C(O)c1c[nH]c2c(ccc3[nH]cc(C(=O)O)c(=O)c32)c1=O | > 100 µM | > 100 µM | > 100 µM | > 100 µM | > 100 µM | > 100 µM | > 100 µM | > 100 µM | > 100 µM | > 100 µM | – | – | – | – | – | – | – | – | – | –
O=C(NCCCl)NCc1ccccc1 | > 100 µM | > 100 µM | > 100 µM | > 100 µM | > 100 µM | > 100 µM | > 100 µM | > 100 µM | > 100 µM | > 100 µM | – | – | – | – | – | – | – | – | – | –
CCN(CC)CC(O)c1cc(-c2ccc(Cl)cc2)nc2cc(Cl)ccc12 (stereo not drawn) | 8.04 µM | 2.47 µM | 4.05 µM | 4.12 µM | 7.32 µM | 3.63 µM | 3.21 µM | 3.52 µM | 3.33 µM | 3.34 µM | 1760 nM | 0.518 µM | 1920 nM | 1960 nM | 2750 nM | 1.92 µM | 1.76 µM | 1690 nM | 1730 nM | 1750 nM
COc1cccc(/C=C2\CCc3ccccc3C2=O)c1 | 29.3 µM | 35 µM | 26.2 µM | 60.7 µM | 32.4 µM | 28.2 µM | 31 µM | 15.1 µM | 13.4 µM | 20.2 µM | 13900 nM | 12.5 µM | 12900 nM | 12400 nM | 16100 nM | 12.9 µM | 15.5 µM | 3100 nM | 3700 nM | 5300 nM
Clc1ccc(Nc2ncnc3c2sc2ncccc23)c(Cl)c1 | > 100 µM | > 100 µM | > 100 µM | > 100 µM | > 100 µM | > 100 µM | > 100 µM | > 100 µM | > 100 µM | > 100 µM | 82.6 nM | > 100 µM | 1000 nM | < 13.5 nM | 49.2 nM | 30.7 µM | 6.39 µM | < 18.7 nM | 61.7 nM | 15.2 nM
CCC1OC(=O)CC(O)C(C)C(OC2OC(C)CC(N(C)C)C2O)C(CC=O)CC(C)C(=O)/C=C/C2(C)OC2C1C (stereo not drawn) | 44.8 µM | 25.4 µM | 59.1 µM | 68.5 µM | 56.1 µM | > 100 µM | 42.3 µM | 36.6 µM | 34.8 µM | 30.8 µM | – | – | – | – | – | – | – | – | – | –
COc1ccc(/C=C/C(=O)c2ccccc2)cc1OC | 28.7 µM and 35.6 µM | 49.7 µM and 43.7 µM | 25.3 µM and 26.8 µM | 39.6 µM and 39.2 µM | 48.2 µM and 27.6 µM | 32.2 µM and 35.3 µM | 38.1 µM and 32 µM | > 100 µM and 58.3 µM | > 100 µM and 18.4 µM | 21.9 µM and 18.1 µM | 17700 nM | 15.4 µM | 7380 nM | – | – | – | 17.6 µM | – | – | 5810 nM
Cc1cc2c(C)nn(Cc3ccccc3Cl)c2c(C#N)c1C | > 100 µM | > 100 µM | > 100 µM | > 100 µM | > 100 µM | > 100 µM | > 100 µM | > 100 µM | > 100 µM | > 100 µM | – | – | – | – | – | – | – | – | – | –
COc1ccc(OC)c(-c2cc(=O)c3cc4c(cc3[nH]2)OCO4)c1 | > 100 µM | > 100 µM | > 55.2 µM | > 68.5 µM | 16.5 µM | > 51.3 µM | > 100 µM | > 27.9 µM | > 100 µM | > 77.9 µM | – | – | – | – | – | – | – | – | – | –
Cc1cc2nc3c4cc([N+](=O)[O-])ccc4n(CCN(C)C)c3nc2cc1C | 5.49 µM | 3.23 µM | 5.23 µM | > 88 µM | 2.21 µM | 3.03 µM | 2.48 µM | 5.1 µM | 7.19 µM | 11.9 µM | 579 nM | 0.385 µM | 590 nM | 509 nM | 650 nM | 1 µM | 0.967 µM | 253 nM | 301 nM | 480 nM
COc1ccc2c(c1)C(=O)c1c-2c(OCCN2CCCCC2)nc2ccc(OC)cc12 | 4.12 µM | 6.58 µM | 2.67 µM | 4.67 µM | 11 µM | 28.6 µM | 12.8 µM | 1.25 µM | 2.19 µM | 1.79 µM | 1000 nM | 0.708 µM | 892 nM | 601 nM | 1900 nM | 12.4 µM | 3.52 µM | 235 nM | 269 nM | 513 nM
CCCCCCn1c2c(c3c(O)cccc31)C(=O)c1ccccc1-2 | 43.5 µM | 39.6 µM | 43 µM | 36.7 µM | 28 µM | 37.9 µM | > 100 µM | > 100 µM | 34.8 µM | 32.9 µM | 20100 nM | 19.2 µM | 20600 nM | 17400 nM | 12000 nM | 18.9 µM | 35.9 µM | 26000 nM | 18200 nM | 17800 nM
O=C1C(=Cc2ccc([N+](=O)[O-])o2)C(=O)N(CCc2ccccc2)S(=O)(=O)N1CCc1ccccc1 | > 100 µM | > 100 µM | 31.4 µM | 79.2 µM | 34.1 µM | 35.2 µM | 28 µM | 38.4 µM | 33.9 µM | > 100 µM | – | – | – | – | – | – | – | – | – | –
Nc1nc(Cl)nc2c1ncn2C1OC(CO)C(O)C1O (stereo not drawn) | > 100 µM | > 100 µM | > 100 µM | > 100 µM | > 100 µM | > 100 µM | > 100 µM | > 100 µM | > 100 µM | > 100 µM | > 96800 nM | > 100 µM | > 100000 nM | 403 nM | > 100000 nM | > 100 µM | > 100 µM | 8920 nM | 36100 nM | 13200 nM
COC1C(C)OC(OC2CC(C)(O)Cc3cc4c(c(O)c32)C(=O)c2c(O)cc3c(c2C4=O)OC2OC3(C)C(O)C(N(C)C)C2O)C(OC)C1(C)OC (stereo not drawn) | 1.21 µM and 0.304 µM | 3.47 µM and 5.05 µM | – | 2.79 µM and 1.37 µM | – | 0.137 µM and 0.0386 µM | – | – | 2.84 µM and 2.41 µM | – | – | – | 104 nM and 37.6 nM | 41.6 nM and 17.6 nM | 54.8 nM and 19.1 nM | 0.0303 µM | 0.0687 µM and 0.0334 µM | 11.4 nM | 38 nM and 24 nM | 45.9 nM and 16 nM
